Measured values as given in ChEMBL document CHEMBL6087469, “Targeting Oncogenic RET Kinase by Simultaneously Inhibiting Kinase Activity and Degrading the Protein” (J Med Chem, 2025).
The source made the active and inactive calls. The rule behind the calls is not given here.

Experiments:
[1] = test system: TPC1; experiment: Downregulation of AURKA expression in human TPC1 cells at 200 nM incubated for 24 hrs by TMT mass spectrometric proteomic analysis; type: functional, cell-based
[2] = test system: TPC1; experiment: Downregulation of MKI67 expression in human TPC1 cells at 200 nM incubated for 24 hrs by TMT mass spectrometric proteomic analysis; type: functional, cell-based
[3] = test system: TPC1; experiment: Downregulation of AURKB expression in human TPC1 cells at 200 nM incubated for 24 hrs by TMT mass spectrometric proteomic analysis; type: functional, cell-based
[4] = test system: TPC1; experiment: Downregulation of CDKN1B expression in human TPC1 cells at 200 nM incubated for 24 hrs by TMT mass spectrometric proteomic analysis; type: functional, cell-based
[5] = test system: TPC1; experiment: Downregulation of CDK2 expression in human TPC1 cells at 200 nM incubated for 24 hrs by TMT mass spectrometric proteomic analysis; type: functional, cell-based
[6] = AUC (0 to infinity) in mouse at 50 mg/kg, ip measured for 48 hrs by LC/MS/MS analysis; type: ADME, organism-based; conditions: in vivo
[7] = test system: TPC1; experiment: Inhibition of cell proliferation in human TPC1 cells measured after 5 days by Cell Titer Glo assay; type: functional, cell-based; conditions: time 5.0 day
[8] = Tmax in mouse at 50 mg/kg, ip measured for 48 hrs by LC/MS/MS analysis; type: ADME, organism-based; conditions: in vivo
[9] = Cmax in mouse at 50 mg/kg, ip measured for 48 hrs by LC/MS/MS analysis; type: ADME, organism-based; conditions: in vivo
[10] = Half life in mouse at 50 mg/kg, ip measured for 48 hrs by LC/MS/MS analysis; type: ADME, organism-based; conditions: in vivo
[11] = target: Coiled-coil domain-containing protein 6/Tyrosine-protein kinase receptor RET (Homo sapiens) (UniProt P07949+Q16204); experiment: Inhibition of CCDC6-RET fusion kinase activity in human TPC1 cells upto 250 nM incubated for 24 hrs by immunoblotting analysis; type: cell-based
[12] = test system: TPC1; experiment: Induction of CCDC6-RET fusion degradation in human TPC1 cells upto 250 nM incubated for 24 hrs by immunoblotting analysis; type: cell-based

Sequence of Coiled-coil domain-containing protein 6/Tyrosine-protein kinase receptor RET (Homo sapiens) (P07949 29-1114 limits assumed): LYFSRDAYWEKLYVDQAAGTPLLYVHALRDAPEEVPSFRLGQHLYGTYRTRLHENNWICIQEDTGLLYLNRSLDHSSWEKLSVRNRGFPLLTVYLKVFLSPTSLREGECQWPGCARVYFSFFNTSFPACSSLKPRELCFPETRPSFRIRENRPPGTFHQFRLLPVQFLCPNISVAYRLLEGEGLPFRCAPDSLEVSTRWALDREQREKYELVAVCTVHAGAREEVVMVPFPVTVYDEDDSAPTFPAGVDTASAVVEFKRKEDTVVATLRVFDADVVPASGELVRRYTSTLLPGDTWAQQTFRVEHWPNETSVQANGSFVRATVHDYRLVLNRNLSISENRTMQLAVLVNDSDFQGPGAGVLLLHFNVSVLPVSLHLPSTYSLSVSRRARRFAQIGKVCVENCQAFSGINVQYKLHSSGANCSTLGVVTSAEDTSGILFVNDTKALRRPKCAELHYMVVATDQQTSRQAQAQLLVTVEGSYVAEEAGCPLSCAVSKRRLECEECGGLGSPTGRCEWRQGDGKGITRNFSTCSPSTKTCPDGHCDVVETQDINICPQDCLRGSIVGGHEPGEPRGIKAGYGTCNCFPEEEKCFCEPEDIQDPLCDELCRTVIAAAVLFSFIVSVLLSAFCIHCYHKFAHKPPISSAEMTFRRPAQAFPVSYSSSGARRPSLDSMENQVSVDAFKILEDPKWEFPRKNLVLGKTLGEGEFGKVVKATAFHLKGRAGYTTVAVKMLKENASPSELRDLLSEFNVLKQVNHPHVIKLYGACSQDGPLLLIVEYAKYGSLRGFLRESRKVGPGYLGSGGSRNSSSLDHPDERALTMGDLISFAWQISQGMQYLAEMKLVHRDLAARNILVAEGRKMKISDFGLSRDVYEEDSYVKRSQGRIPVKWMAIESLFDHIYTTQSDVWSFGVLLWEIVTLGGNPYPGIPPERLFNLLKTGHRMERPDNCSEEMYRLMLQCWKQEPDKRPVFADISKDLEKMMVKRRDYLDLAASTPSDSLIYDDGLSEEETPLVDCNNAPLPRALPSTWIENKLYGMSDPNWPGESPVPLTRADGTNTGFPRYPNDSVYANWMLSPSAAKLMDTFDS
Sequence of Coiled-coil domain-containing protein 6/Tyrosine-protein kinase receptor RET (Homo sapiens) (Q16204 2-474 partner limits assumed): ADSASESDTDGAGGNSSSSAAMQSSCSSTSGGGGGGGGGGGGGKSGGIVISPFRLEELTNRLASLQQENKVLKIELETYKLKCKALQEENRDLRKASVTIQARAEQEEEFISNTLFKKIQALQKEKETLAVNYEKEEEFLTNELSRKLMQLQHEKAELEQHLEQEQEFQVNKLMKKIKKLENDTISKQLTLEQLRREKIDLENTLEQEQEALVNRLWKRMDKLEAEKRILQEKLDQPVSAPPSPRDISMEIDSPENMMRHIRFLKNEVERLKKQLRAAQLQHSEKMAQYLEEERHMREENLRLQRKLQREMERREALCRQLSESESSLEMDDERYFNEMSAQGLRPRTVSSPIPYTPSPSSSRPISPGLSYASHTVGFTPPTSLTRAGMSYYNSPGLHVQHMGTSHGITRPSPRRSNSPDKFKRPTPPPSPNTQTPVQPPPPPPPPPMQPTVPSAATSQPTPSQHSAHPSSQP

For COc1ccc(CN2C3CC2CN(c2ccc(-c4cc(OCC(C)(C)O)cn5ncc(C#N)c45)cn2)C3)cn1, the Activity [1] was “Active”, the Activity [2] was “Active” and the Activity [3] was “Active”. For the same compound, the Activity [4] was “Active” and the Activity [5] was “Active”.
In the case of COc1ccc(CN2C3CC2CN(c2ccc(-c4cc(OCCCC(=O)NC5CC6(CCN(c7ccc(C(=O)NCCOc8ccc(C9CCC(=O)NC9=O)cc8)cc7)CC6)C5)cn5ncc(C#N)c45)cn2)C3)cn1 (stereo not drawn), the AUC ([6]; ip, 50 mg/kg, 48 h) is reported as 2.3421 µg·h/mL, the inhibition [7] is reported as “Active” and the Tmax ([8]; ip, 50 mg/kg, 48 h) is reported as 0.17 h. The Cmax ([9]; ip, 50 mg/kg, 48 h) was 0.0449 µg/mL and the t1/2 ([10]; ip, 50 mg/kg, 48 h) was 0.25 h.
With COc1ccc(CN2C3CC2CN(c2ccc(-c4cc(OCCCC(=O)N5CCC(N6CCC(C#Cc7ccc(C(=O)NCC#Cc8ccc9c(c8)CN(C8CCC(=O)NC8=O)C9=O)cc7)CC6)CC5)cn5ncc(C#N)c45)cn2)C3)cn1 (stereo not drawn) the AUC(0-inf) [6] was 3.67 µg·h/mL, the inhibition [7] was “Active” and the Tmax ([8]; read-out: Tmax) was 1 h. For the same compound, the Cmax ([9]; read-out: Cmax) was 1.14 µg/mL and the half-life [10] was 7.3 h.
With COc1ccc(CN2C3CC2CN(c2ccc(-c4cc(OCCCCCCCC(=O)N5CCN(c6ccc(C(=O)NCCOc7ccc(C8CCC(=O)N(C)C8=O)cc7)cn6)CC5)cn5ncc(C#N)c45)cn2)C3)cn1 (stereo not drawn) the inhibition [11] was “Active”, the Activity [12] was “inactive” and the inhibition [7] was “Active”.
